Reference: article PMC7942396, “Drug Repurposing Screen for Compounds Inhibiting the Cytopathic Effect of SARS-CoV-2” (Frontiers in Pharmacology, 2021)
Structures can show the parent of a compound that is named as a salt. Where two headings read alike, the source gives them in different places.

Assays:
[1] = system: SARS-CoV-2 (USA_WA1/2020); test: microbe, parasite or virus in culture; format: cell-based; conditions: for EC50: read-out: CPE EC50
Vero E6 cells = Vero E6 cells without virus; for CC50: read-out: Cytotox CC50
[2] = SARS-CoV-2 CPE assay, Vero E6 cells
[3] = […], DMSO 0%, no-virus control 100%, hit confirmation
[4] = SARS-CoV-2 CPE assay, Vero E6 cells, confirmed anti-SARS-CoV-2 compounds
[5] = SARS-CoV-2 CPE assay, Vero E6 cells, efficacy

Molecule | % Cytotox (Vero E6 cells; cytotoxicity counter-assay) [%] | CC50 (Vero E6 cells; cytotoxicity counter-assay) [µM] | EC50 [1, 4] [µM] | CPE % Efficacy [1, 5] [%] | also measured
CNC(=O)c1ccc2c(C(=Nc3cccc(CN(C)C)c3)c3ccccc3)c(O)[nH]c2c1 [NCGC00346543] | 22.6 |  |  |  | CPE % Efficacy [1, 2]: 94.9%; EC50 [1, 2]: 12.6 µM
CS(=O)(=O)O.Cc1ncc(NC(=O)c2ccc(CN3CCN(C)CC3)c(C(F)(F)F)c2)cc1Nc1nccc(-c2cccnc2)n1 [Flumatinib mesylate] | 11.1 | 4.47 |  |  | CPE % Efficacy [1, 2]: 134.3%; EC50 [1, 2]: 12.6 µM
CC/C(=C(/CC)c1ccc(O)c(CN(CC)CC)c1)c1ccc(O)c(CN(CC)CC)c1 [NSC 33994, reference compound] |  |  |  |  | CPE % Efficacy [1, 3]: 107.6%; EC50 [1]: 8.9 µM; % Cytotox (Vero E6 cells; 72 h): <30%
COc1ccc(CCNCc2ccc(OC)c3ccccc23)cc1 [SBI-0087702] | 24.6 | 7.08 | 11.2 | 106.7 | 
C[C@@H]1CN(CC(=O)N2CC(C)(C)c3ncc(Cc4ccc(F)cc4)cc32)[C@@H](CN2CCOC[C@H]2C)CN1 [AT-IAP] | 0.0 |  |  |  | CPE % Efficacy [1, 2]: 56.2%
CC(C)(C)c1ccc(CN2CCN(C(c3ccccc3)c3ccc(Cl)cc3)CC2)cc1.Cl.Cl (stereo not shown) [Buclizine HCl] | 0.0 |  |  |  | CPE % Efficacy [1, 2]: 86.2%; EC50 [1, 2]: 14.1 µM
COc1ccc2c(c1)CN(C(=O)CCN1CCC(Cc3ccccc3)CC1)CCS2 [JTV519 Hemifumarate, reference compound] |  |  |  |  | CPE % Efficacy [1, 3]: 85.7%; EC50 [1]: 5.5 µM; % Cytotox (Vero E6 cells; 72 h): <30%
Cc1nnc(-c2ccc(-c3ccc(C(=O)Nc4ccc(O)c(N5CCN(C)CC5)c4)cc3)c(C)c2)o1 [GMC 2-113, reference compound] |  |  |  |  | CPE % Efficacy [1, 3]: 129.7%; EC50 [1]: 10 µM; % Cytotox (Vero E6 cells; 72 h): <30%
Cl.Cl.Fc1ccc(-c2nc(C3CCNCC3)sc2-c2ccnc(NC3CC3)n2)cc1 [DBM 1285 dihydrochloride] | 61.3 | 11.2 |  |  | CPE % Efficacy [1, 2]: 56.1%; EC50 [1, 2]: 12.6 µM
(-)-Indolactam V | 20.4 | 1.24 | 1.56 | 74.4 | 
C[C@H]1CC[C@@]2(OC1)O[C@H]1CC3[C@@H]4CC[C@@H]5C[C@@H](O[C@@H]6O[C@H](CO)[C@@H](O[C@@H]7O[C@H](CO[C@@H]8OC[C@@H](O)[C@H](O)[C@H]8O)[C@@H](O[C@@H]8O[C@H](CO)[C@H](O)[C@H](O)[C@H]8O)[C@H](O)[C@H]7O)[C@H](O)[C@H]6O)CC[C@]5(C)C4CC[C@]3(C)[C@H]1[C@@H]2C (stereo partly shown) [NCGC00385658] | 78.8 | 3.4 | 3.03 | 68.4 | 
CC(C)c1onc(-c2c(Cl)cccc2Cl)c1COc1ccc(/C=C/c2cccc(C(=O)O)c2)c(Cl)c1 [GW-4064X] | 60.4 |  |  |  | CPE % Efficacy [1, 2]: 73.5%; EC50 [1, 2]: 12.6 µM
CC1(C)CCC(C)(C)c2cc(C#Cc3ccc(C(=O)O)cc3)ccc21 [EC 23] | 74.0 | 12.6 | 3.98 | 110.5 | 
GSK 9027 | 24.3 |  |  |  | CPE % Efficacy [1, 2]: 104.1%; EC50 [1, 2]: 12.6 µM
O=C(NCc1ccccc1)[C@H](Cc1ccccc1)NC(=O)[C@H]1O[C@@H]1C(=O)NCCc1ccc(O)cc1 [CAA-0225, reference compound] |  |  |  |  | CPE % Efficacy [1, 3]: 99.3%; EC50 [1]: 0.2 µM; % Cytotox (Vero E6 cells; 72 h): <30%
CN1CCN(C(=O)c2ccc(Nc3nccc(-c4cccs4)n3)cc2Cl)CC1 | 55.6 | 10 | 11.2 | 71.5 | 
O=C(CCn1cnc2onc(-c3ccc(F)cc3)c2c1=O)Nc1cccc(C(F)(F)F)c1 [NCGC00126519] | 65.0 | 10 | 11.2 | 64.8 | 
COc1cc2nc(N3CCC(N4CCCCC4)CC3)nc(NC3CCCCCC3)c2cc1OC.Cl.Cl [C 021 dihydrochloride] | 108.9 | 7.08 | 3.55 | 79.7 | 
C/C=C(/C)C(=O)O[C@H]1[C@@H]2[C@H](C)C(=O)O[C@@H]2C[C@@H](C)[C@@H]2C=CC(=O)[C@]21C [Brevelin A] | 59.7 | 11.2 | 3.55 | 61.5 | 
CCCCCCCc1ccc(CCc2cccc(O)c2C(=O)O)cc1 [MG-149] | 23.4 |  |  |  | 
CCC(C)C(=O)OC1CC(O)C23C4OCC5(C(O)CC2C1(C)C(O)O4)C3C(=O)CC1(C)C(c2ccoc2)CC2OC215 (stereo not shown) [NCGC00381227] | 53.1 | 7.8 | 3.91 | 82.9 | 
Cc1cc(C)c(CNC(=O)c2cc(-c3ccc(N4CCN(C)CC4)nc3)cc3c2c(C)cn3C(C)C)c(=O)[nH]1 [GSK-503?EZH2 inhibitor] | 0.0 |  |  |  | CPE % Efficacy [1, 2]: 111.9%; EC50 [1, 2]: 12.6 µM
C/C=C(\C)C(=O)OC1C(C)C2(O)C3C=C(C)C(=O)C3CC(CO)=CC2C2C(C)(C)C12OC(C)=O (stereo not shown) [NCGC00380717] | 9.9 | 0.35 | 0.78 | 67.0 | 

Molecule | % Cytotox (Vero E6 cells; cytotoxicity counter-assay) [%] | CC50 (Vero E6 cells; cytotoxicity counter-assay) [µM] | EC50 [1, 4] [µM] | CPE % Efficacy [1, 5] [%] | also measured
CN(C)CCC=C1c2ccccc2C(C)(C)c2ccccc21.Cl [Melitracen hydrochloride, reference compound] |  |  |  |  | CPE % Efficacy [1, 3]: 97.1%; EC50 [1]: 10 µM; % Cytotox (Vero E6 cells; 72 h): <30%
Cc1cnc(NC(=O)c2cc(S(=O)(=O)N(C)C)ccc2N2CCCC2)s1 [ML414, reference compound] |  |  |  |  | EC50 [1]: 3.2 µM; % Cytotox (Vero E6 cells; 72 h): <30%
CC(=O)O[C@@H]1C[C@H]2C(C)(C)C(=O)C=C[C@]2(C)[C@H]2CC[C@]3(C)C(=CC(=O)O[C@H]3c3ccoc3)[C@@]21C [DEOXYGEDUNIN] | 0.0 |  | 11.2 | 107.7 | 
CC(C)C[C@H]1C(=O)O[C@H](Cc2ccc(N3CCOCC3)cc2)C(=O)N(C)[C@@H](CC(C)C)C(=O)O[C@H](C)C(=O)N(C)[C@@H](CC(C)C)C(=O)O[C@H](Cc2ccc(N3CCOCC3)cc2)C(=O)N(C)[C@@H](CC(C)C)C(=O)O[C@H](C)C(=O)N1C [Emodepside] | 32.2 | 8.91 | 6.31 | 74.5 | 
CCOc1ccc(-c2nc(-c3cccc4c3CCC4NCCO)no2)cc1OCC.Cl (stereo not shown) [CYM 5442 hydrochloride] | 0.0 |  | 11.2 | 134.3 | 
CC(C)(C)Cn1c(N)nc2ccc(-c3[nH]c(C(C)(C)C)nc3-c3ccc(F)cc3)nc21 [LY-2228820 (ralimetinib)] | 78.9 | 12.6 | 1.58 | 85.9 | 
Cn1cc(-c2ccncc2)c(-c2ccc(OCc3ccc4ccccc4n3)cc2)n1 [MP-10] | 85.1 |  | 4.47 | 31.1 | 
O=C(NCCCN1CCN(c2ccccc2F)CC1)c1ccc2nc(Cc3ccccc3)oc2c1 [NCGC00133175] | 25.5 | 15.8 |  |  | CPE % Efficacy [1, 2]: 95.1%; EC50 [1, 2]: 14.1 µM
COc1cc2nc(N3CCCCC3)nc(NC3CCN(Cc4ccccc4)CC3)c2cc1OC [NCGC00185849] | 110.3 | 10 | 3.98 | 66.6 | 
CCc1cc(-c2n[nH]c(C)c2-c2ccc3c(c2)OCCO3)c(O)cc1O [CCT-018159] | 34.2 |  |  |  | CPE % Efficacy [1, 2]: 74.6%; EC50 [1, 2]: 14.1 µM
COc1cccc(NC[C@@H](O)Cn2c3ccc(Br)cc3c3cc(Br)ccc32)c1 [(R)-P7C3-Ome] | 32.2 | 11.2 |  |  | CPE % Efficacy [1, 2]: 63.4%; EC50 [1, 2]: 12.6 µM
CCCOC(C(=O)OC1CCN(C)CC1)(c1ccccc1)c1ccccc1.Cl [Propiverine hydrochloride] | 0.0 |  | 11.2 | 44.6 | 
CCN(CC)Cc1cccc(/C=C/c2nc3ccc(F)cc3c(=O)n2-c2ccccc2Cl)n1.Cl [CP 465022 hydrochloride] | 47.9 | 12.6 | 10 | 77.3 | 
Cc1cccc2c1CC[C@H](CN1CCC(c3c(Cl)cccc3Cl)CC1)C[C@@H]2O.Cl [SB 612111 hydrochloride] | 59.7 | 12.6 | 8.91 | 53.8 | 
OC(CNc1ccccc1)Cn1c2ccc(Br)cc2c2cc(Br)ccc21 (stereo not shown) [P7C3] | 54.5 | 11.2 | 3.98 | 65.2 | 
Br.O=C(CN1C2=NCCN2c2ccccc21)c1ccc(-c2ccccc2)cc1 [CCT 031374 hydrobromide] | 33.8 | 12.6 | 7.94 | 63.4 | 
Cc1nc(C)c(CN2CCN(C(c3ccc(F)cc3)c3ccc(F)cc3)CC2)nc1C [CXC-195] | 0.0 |  |  |  | CPE % Efficacy [1, 2]: 32.4%; EC50 [1, 2]: 12.6 µM
CCC(C)CNCC(=O)N1CCc2sccc2C1COc1cccc(C)c1.Cl (stereo not shown) [RU-SKI 43 (hydrochloride)] | 21.4 | 8.91 |  |  | 
N=C(N)Nc1ccc(C(=O)Oc2ccc3cc(C(=N)N)ccc3c2)cc1 [nafamstat, reference compound] |  |  |  |  | Activity in the Vero E6 assay [1]: not active
CN(C)CCCN1c2ccccc2Sc2ccc(C(F)(F)F)cc21 [Triflupromazine hydrochloride] |  |  |  |  | EC50 ([1]; Severe acute respiratory syndrome coronavirus 2, Vero C1008, SARS-CoV-2 CPE assay, Vero E6 cells, confirmed anti-SARS-CoV-2 compounds): 10 µM; Emax ([1]; Severe acute respiratory syndrome coronavirus 2, Vero C1008, SARS-CoV-2 CPE assay, Vero E6 cells, efficacy, read-out: CPE % Efficacy): 77.3%
CN(C)C(=O)COC(=O)Cc1ccc(OC(=O)c2ccc(NC(=N)N)cc2)cc1 [camostat, reference compound] |  |  |  |  | Activity in the Vero E6 assay [1]: not active
Oligomycin A |  |  | 3.98 | 104.5 | 
